From ChEMBL document CHEMBL1147051, “Coupling substrate and ion binding to extracellular gate of a sodium-dependent aspartate transporter” (Nature, 2007)
Calls of active or inactive are those of the source. The rule behind the calls is not given here.

How the values were obtained:
[1] = Binding affinity to Pyrococcus horikoshii sodium-coupled aspartate transporter
[2] = molecular target: Glutamate transporter homolog (Pyrococcus horikoshii (strain ATCC 700860 / DSM 12428 / JCM 9974 /NBRC 100139 / OT-3), UniProt O59010, D405N); test: Binding affinity to Pyrococcus horikoshii sodium-coupled aspartate transporter D405N mutant in presence of NaCl
Sequence of Glutamate transporter homolog (O59010 whole entry D405N): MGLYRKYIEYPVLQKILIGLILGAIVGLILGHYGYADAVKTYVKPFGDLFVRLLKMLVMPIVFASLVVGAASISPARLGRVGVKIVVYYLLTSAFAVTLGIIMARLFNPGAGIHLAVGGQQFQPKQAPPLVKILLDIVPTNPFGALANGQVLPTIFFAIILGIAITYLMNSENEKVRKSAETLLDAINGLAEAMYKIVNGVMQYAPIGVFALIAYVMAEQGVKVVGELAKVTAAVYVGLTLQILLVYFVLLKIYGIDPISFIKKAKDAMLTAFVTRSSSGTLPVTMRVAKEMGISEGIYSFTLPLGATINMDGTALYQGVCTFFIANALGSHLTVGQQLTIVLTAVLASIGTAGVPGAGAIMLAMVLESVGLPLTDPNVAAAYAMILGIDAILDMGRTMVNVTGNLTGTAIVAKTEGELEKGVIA

[3] = Binding affinity to Pyrococcus horikoshii sodium-coupled aspartate transporter by isothermal titration calorimetry in presence of NaCl
Pyrococcus horikoshii = test: Inhibition of [3H]L-aspartate uptake at Pyrococcus horikoshii sodium-coupled aspartate transporter in presence of thallium

Row | SMILES | Kd [1] [µM] | other results
1 | N[C@@H](CS(=O)O)C(=O)O | 0.02 | –
2 | NC(C(=O)O)C(OCc1ccccc1)C(=O)O (racemic) | – | Kd [2]: 0.1 µM
3 | N[C@@H](CC(=O)O)C(=O)O [ASPARTIC ACID] | – | Kd [3]: 0.094 µM; Activity (Pyrococcus horikoshii): inactive
4 | N[C@H](CC(=O)O)C(=O)O [D-ASPARTATE] | 0.009 | –
5 | N[C@H](CCC(=O)O)C(=O)O [D-GLUTAMATE] | 162 | –
6 | N[C@@H](CCC(=O)O)C(=O)O [GLUTAMIC ACID] | 122 | –
7 | N[C@@H](CO)C(=O)O [SERINE] | 160 | –
8 | O=C(O)CCC(=O)O [SUCCINIC ACID] | 1450 | –
